Experimental data published in patent US4764533A, “Erythro-1,2-1-pentanones” (Klinge Pharma GmbH, priority 1981, dated 1988).

What was measured:
estradiol receptor = molecular target: T1, estradiol receptor (Oryctolagus cuniculus, UniProt G1SML6); experiment: Bonding affinity to the estradiol receptor (displacement of (^3 H) estradiol, rabbit uterus cytosol); format: binding, rabbit (New Zealand); settings: uterus cytosol of female prepubertal rabbits; 18 hours at 40° C.; 2.5×10^-9 M (^3 H) estradiol; read-out: ED50 (concentration of substance displacing 50% (^3 H) estradiol from the estradiol receptor)
T1 construct: The uterus cytosal of female, prepubertal, white rabbits (New Zealand); from tissue; host or cells: uterus cytosol of female prepubertal New Zealand white rabbits
T1 sequence (G1SML6 1-598): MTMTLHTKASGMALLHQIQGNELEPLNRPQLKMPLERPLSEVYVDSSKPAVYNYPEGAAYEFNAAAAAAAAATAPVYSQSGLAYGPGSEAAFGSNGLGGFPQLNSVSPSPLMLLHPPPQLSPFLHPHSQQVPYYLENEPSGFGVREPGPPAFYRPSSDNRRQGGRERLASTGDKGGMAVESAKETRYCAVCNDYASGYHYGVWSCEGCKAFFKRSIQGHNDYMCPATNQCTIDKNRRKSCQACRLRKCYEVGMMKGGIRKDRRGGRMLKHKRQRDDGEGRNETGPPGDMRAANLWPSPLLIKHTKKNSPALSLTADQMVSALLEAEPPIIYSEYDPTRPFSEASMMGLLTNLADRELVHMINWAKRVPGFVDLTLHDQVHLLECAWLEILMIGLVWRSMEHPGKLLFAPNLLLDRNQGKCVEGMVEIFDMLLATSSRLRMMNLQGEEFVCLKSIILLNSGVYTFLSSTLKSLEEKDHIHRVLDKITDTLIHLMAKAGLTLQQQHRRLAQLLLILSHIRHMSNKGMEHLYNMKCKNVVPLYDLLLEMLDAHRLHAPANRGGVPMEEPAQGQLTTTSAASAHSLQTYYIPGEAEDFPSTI
Text: The determination of the binding affinity to the estradiol receptor was effected by means of the rabbit uterus cytosol.
The measurement of the bonding affinity to the estradiol receptor was affected by the method of N. Devleeschouwer, G. Leclercq, A. Danguy and J. C.

uterus = experiment: Antiuterotropic effect (modified Dorfman test, uterus weight); format: in vivo, rat (Spraque-Dawley, sexually mature female); settings: 3 mg/kg/day, esophageal tube, 21 days, six times per week; 10 animals
Method: The measurement of the antiuterotropic action was effected following a three-week treatment with the active ingredient of sexually mature, female rats. […] The antiuterotropic effect was determined by a modified Dorfman test (R. I. Dorfman, "Methods in Hormone Research II" p. 707, Academic Press, New York-London, 1962), on sexually mature female Spraque-Dawley rats. The test compounds were taken up in a 0.25% aqueous agar suspension and administered by esophageal tube over a period of 21 days, six times per week. Following the completion of the experiment, the uterus weight of animals treated with the active ingredient was related to the uterus weight of the control animals, which received only an empty agar suspension.

[1] = tested on: mammatumors induced by 7,12-dimethylbenz(a)anthracene; experiment: Mammatumor inhibiting effect (7,12-dimethylbenz(a)anthracene-induced mammatumors); format: in vivo, rat (female Spraque-Dawley, Hannover strain); settings: 3 mg/kg/day, esophageal tube, 28 days, six times per week; 10 animals; control animals valued at 100%
Method: The tumor inhibiting action was measured following a four-week treatment with the active ingredient on female rats, with mammatumors induced previously with 7,12-dimethylbenz(a)anthracene.
The tumor inhibiting effect was determined on the model of mammatumors induced by means of 7,12-dimethylbenz(a)anthracene of female Spraque-Dawley rats (Hannover strain), by the method of M. J. Golder (Europ. J. Cancer 11, 571 (1975)) and D. P. Griswold et al. (Cancer Research 26, 2169 (1966)).
The test substance were taken up in a 0.25% agar solution and administered by esophageal tube over a period of 28 days, six times per week. Twice weekly and on the 28th day of the experiment, the number of animals was ascertained and the tumor surface (mm^2 /animal) of the therapy and control animals measured. At the completion of the experiment, the percentage increase of the average tumor surface of the treated animals was determined, compared with the control animals, which were valued at 100%.

Row | Structure (SMILES) | IC50 (estradiol receptor) | Weight of uterus compared to control animals (uterus) | Relative increase of average tumor surface [1]
1 | CC[C@H](c1ccccc1)[C@@H](C(=O)c1ccc(OCCN2CCCC2)cc1)c1ccccc1 (relative stereo) [Compound 3, erythro-2,3-diphenyl-1-(4'-(2-pyrrolidin-1-yl-ethoxy)-phenyl)-1-pentanone] | 6000 nM | -36% | 
2 | CC[C@H](c1ccccc1)[C@@H](C(=O)c1ccc(OCCN(C)C)cc1)c1ccccc1 (relative stereo) [Compound 1, erythro-1-(4'-(2-dimethylaminoethoxy)-phenyl)-2,3-diphenyl-1-pentanone] | 6000 nM |  | 53%
3 | CC[C@H](c1ccccc1)[C@@H](C(=O)c1ccc(OCCN(C)C)cc1)c1ccc(OC)cc1 (relative stereo) [Compound 5, erythro-1-(4'-(2-dimethylaminoethoxy)-phenyl)-2-(4'-methoxyphenyl)-3-phenyl-1-pentanone] | 4500 nM | -47% | 
4 | CC[C@H](c1ccccc1)[C@@H](C(=O)c1ccc(OCCN2CCCC2)cc1)c1ccc(O)cc1 (relative stereo) [Compound 10, erythro-2-(4'-hydroxyphenyl)-3-phenyl-1-(4'-(2-pyrrolidin-1-yl-ethoxy)-phenyl)-1-pentanone] | 80 nM |  | 
5 | CC[C@H](c1ccccc1)[C@@H](C(=O)c1ccc(OCCN(CC)CC)cc1)c1ccccc1 (relative stereo) [Compound 2, erythro-1-(4'-(2-diethylaminoethoxy)-phenyl)-2,3-diphenyl-1-pentanone] | 4000 nM | -54% | 
6 | CC[C@H](c1ccccc1)[C@@H](C(=O)c1ccc(OCCN2CCCCC2)cc1)c1ccccc1 (relative stereo) [Compound 4, erythro-2,3-diphenyl-1-(4'-(2-piperidin-1-yl-ethoxy)-phenyl)-1-pentanone] | 2800 nM | -28% | 
7 | CC[C@H](c1ccccc1)[C@@H](C(=O)c1ccc(OCCN(CC)CC)cc1)c1ccc(OC)cc1 (relative stereo) [Compound 6, erythro-1-(4'-(2-diethylaminoethoxy)-phenyl)-2-(4'-methoxyphenyl)-3-phenyl-1-pentanone] | 500 nM |  | 
8 | CC[C@H](c1ccccc1)[C@@H](C(=O)c1ccc(OCCN2CCCC2)cc1)c1ccc(OC)cc1 (relative stereo) [Compound 7, erythro-2-(4'-methoxyphenyl)-3-phenyl-1-(4'-(2-pyrrolidin-1-yl-ethoxy)-phenyl)-1-pentanone] | 1100 nM | -43% | 
9 | CC[C@H](c1ccccc1)[C@@H](C(=O)c1ccc(OCCN2CCCCC2)cc1)c1ccc(OC)cc1 (relative stereo) [Compound 8, erythro-2-(4'-methoxyphenyl)-3-phenyl-1-(4'-(2-piperidin-1-yl-ethoxy)-phenyl)-1-pentanone] | 1.2 nM |  | 
10 | CC[C@H](c1ccccc1)[C@@H](C(=O)c1ccc(OCCN(C)C)cc1)c1ccc(O)cc1 (relative stereo) [Compound 9, erythro-1-(4'-(2-dimethylaminoethoxy)-phenyl)-2-(4'-hydroxyphenyl)-3-phenyl-1-pentanone] | 5.4 nM | -54% | 30%
